Data as given in US20230348418A1, “ISOINDOLINONE COMPOUNDS” (Monte Rosa Therapeutics, Inc., priority 2021, published 2023).
Like-named read-outs stand apart in the source and are kept apart here.

What was measured:
CRBN-DDB1 = CRBN-DDB1 (Homo sapiens, UniProt Q96SW2); test: HTRF binding of compounds to CRBN
Procedure: Compound activity was monitored in a Homogenous Time-Resolved Fluorescence (HTRF) assay using 1-[5-({2-[2-(2-{[2-(2,6-dioxopiperidin-3-yl)-1,3-dioxo-2,3-dihydro-1H-isoindol-4-yl]oxy}acetamido)ethoxy]ethyl}carbamoyl)pentyl]-3,3-dimethyl-2-[(1E,3E)-5-[(2E)-1,3,3-trimethyl-5-sulfo-2,3-dihydro-1H-indol-2-ylidene]penta-1,3-dien-1-yl]-3H-indol-1-ium-5-sulfonate as a fluorescent probe. […] Compounds were stored in dry, ambient temperatures at 10 mM. A 10-point, 1:3 dilution series was prepared from 10 mM stock concentrations in Echo-compatible LDV plates. 10 nL of each compound dilution series was dispensed into assays wells using an Echo 650 (Labcyte inc. USA). […] The assay was then allowed to incubate for 30 min at ambient temperature after transferring compound. […] Analysis and IC50 values were derived using KNIME analytics (KNIME Zurich) transformation and fitting within Collaborative Drug Discovery (Collaborative Drug Discovery USA). Ki was derived from the geometric mean of the IC50 values using the Cheng-Prustoff transformation.

GSPT1 = GSPT1 (Homo sapiens, UniProt P15170+Q96SW2); test: Immunofluorescence assay for GSPT1 degradation in CAL-51 cells (Example 10); format: cell-based; set-up: host or cells: CAL-51
Procedure: The representative compounds were tested in an immunofluorescence assay for their activity to degrade GSPT1. […] Compounds were stored at 10 mM DMSO stocks. […] Cells were subsequently rinsed with PBS and fixed in 10% Formalin solution (50 μl, Sigma HT5011)) for 20 mins at room temperature. […] Following three further PBS washes, 50 μL blocking buffer (1% BSA, Sigma A4503, in PBS) was added for 45 min for signal-to noise reduction. Primary antibody (human GSPT1, Sigma HPA052488) was diluted in blocking buffer (dil.1/300, 35 μL/well) and incubated with the cells overnight at 4° C. […] After three final PBS washes, samples were conserved in 100 μL PBS in the dark, until measurement. Image acquisition was performed on the Operetta High-Content Imager (Perkin-Elmer). […] For the determination of GSPT1 DC50 values, a custom algorithm implemented in the PerkinElmer image analysis software Harmony-Acapella® was developed. After user-defined setting of adjustment parameters, the analysis was run identically without human intervention for all image fields.
DAPI staining of the nuclei was used to determine the location of cells using standard nuclei detection modules. Segmentation artifacts were removed by threshold-based filters for area, roundness and intensity. The outline of the cells was determined analogously from the sum of the normalized, smoothed DAPI and Actin channel, starting from each nucleus. […] GSPT1 degradation (DC50) was calculated after normalization to controls and data import in CDD vault Database, using non-linear regression.

[1] = read-out: HTRF Class (Cereblon binding, HTRF IC50)
[2] = 6 h, read-out: IF Class (GSPT1 degradation, DC50)
[3] = read-out: IF Class (GSPT1 degradation, DC50), 6 h

CRBN-DDB1, sequence (Q96SW2 whole entry): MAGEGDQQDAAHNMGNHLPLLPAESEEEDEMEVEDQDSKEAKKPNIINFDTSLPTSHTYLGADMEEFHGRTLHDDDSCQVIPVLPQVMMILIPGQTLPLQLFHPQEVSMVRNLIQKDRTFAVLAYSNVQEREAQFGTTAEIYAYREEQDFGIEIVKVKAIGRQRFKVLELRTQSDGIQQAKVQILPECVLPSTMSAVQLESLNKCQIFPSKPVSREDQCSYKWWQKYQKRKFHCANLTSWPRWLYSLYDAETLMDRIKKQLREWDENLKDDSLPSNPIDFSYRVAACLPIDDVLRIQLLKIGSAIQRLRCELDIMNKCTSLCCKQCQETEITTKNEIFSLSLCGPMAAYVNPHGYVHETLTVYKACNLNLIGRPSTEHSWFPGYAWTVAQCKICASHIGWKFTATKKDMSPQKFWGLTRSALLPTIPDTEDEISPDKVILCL
CRBN-DDB1, sequence (Q16531 whole entry partner): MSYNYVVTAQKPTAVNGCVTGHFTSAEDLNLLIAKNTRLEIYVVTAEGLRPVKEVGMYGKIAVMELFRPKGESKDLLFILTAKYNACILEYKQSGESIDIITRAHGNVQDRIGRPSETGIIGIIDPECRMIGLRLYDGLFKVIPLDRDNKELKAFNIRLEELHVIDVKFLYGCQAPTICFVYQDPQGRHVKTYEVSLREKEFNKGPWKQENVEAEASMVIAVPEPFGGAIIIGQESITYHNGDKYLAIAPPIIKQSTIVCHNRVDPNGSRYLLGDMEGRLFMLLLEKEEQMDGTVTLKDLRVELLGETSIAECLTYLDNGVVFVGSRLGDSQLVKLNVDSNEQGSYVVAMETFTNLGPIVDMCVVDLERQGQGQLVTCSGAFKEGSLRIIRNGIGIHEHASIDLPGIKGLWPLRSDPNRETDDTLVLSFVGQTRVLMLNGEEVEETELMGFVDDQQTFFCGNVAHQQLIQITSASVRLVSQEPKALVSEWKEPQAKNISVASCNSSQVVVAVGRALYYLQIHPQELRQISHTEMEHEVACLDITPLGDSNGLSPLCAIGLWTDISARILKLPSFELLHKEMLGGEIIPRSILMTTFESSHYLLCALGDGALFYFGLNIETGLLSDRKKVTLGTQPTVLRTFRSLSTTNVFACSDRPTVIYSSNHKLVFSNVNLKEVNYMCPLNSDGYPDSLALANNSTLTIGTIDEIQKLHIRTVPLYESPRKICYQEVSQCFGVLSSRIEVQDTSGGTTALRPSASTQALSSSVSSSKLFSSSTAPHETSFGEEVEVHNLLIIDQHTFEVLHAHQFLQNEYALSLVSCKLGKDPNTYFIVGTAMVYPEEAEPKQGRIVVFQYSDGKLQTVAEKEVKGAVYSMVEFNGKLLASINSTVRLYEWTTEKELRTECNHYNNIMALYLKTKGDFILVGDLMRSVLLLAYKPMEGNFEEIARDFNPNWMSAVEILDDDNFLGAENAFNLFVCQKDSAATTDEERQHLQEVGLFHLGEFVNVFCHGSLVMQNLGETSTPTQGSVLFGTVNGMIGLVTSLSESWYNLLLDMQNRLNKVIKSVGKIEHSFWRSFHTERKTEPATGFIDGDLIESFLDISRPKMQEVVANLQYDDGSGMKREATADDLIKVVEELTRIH
GSPT1, sequence (P15170 whole entry): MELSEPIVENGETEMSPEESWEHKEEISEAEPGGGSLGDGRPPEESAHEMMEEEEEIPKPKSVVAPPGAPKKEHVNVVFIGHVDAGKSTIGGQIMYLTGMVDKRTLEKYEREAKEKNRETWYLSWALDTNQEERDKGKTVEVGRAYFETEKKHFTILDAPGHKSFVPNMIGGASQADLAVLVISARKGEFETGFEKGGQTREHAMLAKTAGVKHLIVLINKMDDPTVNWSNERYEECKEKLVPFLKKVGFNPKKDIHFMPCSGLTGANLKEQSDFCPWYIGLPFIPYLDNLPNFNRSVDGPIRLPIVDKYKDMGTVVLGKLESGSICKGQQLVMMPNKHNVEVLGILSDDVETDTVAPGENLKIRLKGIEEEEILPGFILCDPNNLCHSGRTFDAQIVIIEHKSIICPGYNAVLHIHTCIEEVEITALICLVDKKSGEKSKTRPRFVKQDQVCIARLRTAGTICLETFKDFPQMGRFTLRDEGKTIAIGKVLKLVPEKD
GSPT1, sequence (Q96SW2 whole entry): as the sequence (Q96SW2 whole entry) above
GSPT1, sequence (Q16531 2-1140 partner limits assumed): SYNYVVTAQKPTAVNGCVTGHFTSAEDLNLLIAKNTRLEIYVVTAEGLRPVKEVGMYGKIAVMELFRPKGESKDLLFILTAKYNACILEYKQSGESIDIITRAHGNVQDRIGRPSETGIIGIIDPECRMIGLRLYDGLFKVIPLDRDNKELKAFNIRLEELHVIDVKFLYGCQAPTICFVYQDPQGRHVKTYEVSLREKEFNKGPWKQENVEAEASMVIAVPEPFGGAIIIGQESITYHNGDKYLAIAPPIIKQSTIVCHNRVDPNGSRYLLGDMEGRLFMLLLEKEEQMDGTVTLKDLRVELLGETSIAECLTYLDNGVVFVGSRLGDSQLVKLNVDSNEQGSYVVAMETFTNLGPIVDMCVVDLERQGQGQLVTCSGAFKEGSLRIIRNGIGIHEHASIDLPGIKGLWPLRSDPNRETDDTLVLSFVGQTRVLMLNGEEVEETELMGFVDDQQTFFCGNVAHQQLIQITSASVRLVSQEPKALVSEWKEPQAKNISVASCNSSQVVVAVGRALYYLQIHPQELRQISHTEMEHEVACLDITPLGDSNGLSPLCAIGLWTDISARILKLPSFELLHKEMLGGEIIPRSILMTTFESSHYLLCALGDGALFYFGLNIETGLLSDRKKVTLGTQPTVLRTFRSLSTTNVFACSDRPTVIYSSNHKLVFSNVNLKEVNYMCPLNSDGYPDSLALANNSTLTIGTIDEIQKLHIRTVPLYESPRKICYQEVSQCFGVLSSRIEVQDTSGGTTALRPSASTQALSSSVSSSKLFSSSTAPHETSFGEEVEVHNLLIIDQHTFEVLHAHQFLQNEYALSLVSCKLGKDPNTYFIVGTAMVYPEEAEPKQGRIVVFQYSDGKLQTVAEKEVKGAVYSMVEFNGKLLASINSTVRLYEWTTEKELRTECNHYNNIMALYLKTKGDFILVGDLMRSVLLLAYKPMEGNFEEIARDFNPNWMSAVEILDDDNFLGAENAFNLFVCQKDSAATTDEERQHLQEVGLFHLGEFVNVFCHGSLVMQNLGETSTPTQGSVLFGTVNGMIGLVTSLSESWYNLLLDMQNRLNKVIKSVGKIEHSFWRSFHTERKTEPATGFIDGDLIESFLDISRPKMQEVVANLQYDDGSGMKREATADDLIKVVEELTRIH

SMILES | IC50 (CRBN-DDB1; [1]) | DC50 (GSPT1; [2]) | IC50 (CRBN-DDB1) | DC50 (GSPT1; [3])
O=C1CCC(N2Cc3ccc(COC(=O)N[C@H]4C[C@@H](c5ccccc5)C4)cc3C2=O)C(=O)N1 (some centres unmarked) [Compound 158, (2-(2,6-dioxopiperidin-3-yl)-3-oxoisoindolin-5-yl)methyl ((1s,3s)-3-phenylcyclobutyl)carbamate] | < 100 nM | > 300 nM |  | 
O=C1CCC(N2Cc3ccc(COC(=O)N[C@H]4C[C@H](c5ccccc5)C4)cc3C2=O)C(=O)N1 (some centres unmarked) [Compound 159, (2-(2,6-dioxopiperidin-3-yl)-3-oxoisoindolin-5-yl)methyl((1r,3r)-3-phenylcyclobutyl)carbamate] | 100 to 1000 nM | 30 to 300 nM |  | 
Cc1cccc(NC(=O)OCc2ccc3c(c2)C(=O)N(C2CCC(=O)NC2=O)C3)c1 (centres unmarked) [Compound 160, (2-(2,6-dioxopiperidin-3-yl)-3-oxoisoindolin-5-yl)methyl m-tolylcarbamate] | 100 to 1000 nM | > 300 nM |  | 
Cc1cc(C)nc(NC(=O)OCc2ccc3c(c2)C(=O)N(C2CCC(=O)NC2=O)C3)c1 (centres unmarked) [Compound 161, (2-(2,6-dioxopiperidin-3-yl)-3-oxoisoindolin-5-yl)methyl (4,6-dimethylpyridin-2-yl)carbamate] | 100 to 1000 nM | > 300 nM |  | 
Cc1ccc(NC(=O)OCc2ccc3c(c2)C(=O)N(C2CCC(=O)NC2=O)C3)cc1 (centres unmarked) [Compound 162, (2-(2,6-dioxopiperidin-3-yl)-3-oxoisoindolin-5-yl)methyl p-tolylcarbamate] | 100 to 1000 nM | > 300 nM |  | 
Cc1cc(NC(=O)OCc2ccc3c(c2)C(=O)N(C2CCC(=O)NC2=O)C3)ccc1Cl (centres unmarked) [Compound 165, (2-(2,6-dioxopiperidin-3-yl)-3-oxoisoindolin-5-yl)methyl (4-chloro-3-methylphenyl)carbamate] | 100 to 1000 nM | < 30 nM |  | 
O=C1CCC(N2Cc3ccc(COC(=O)NC4(c5ccccc5)CC4)cc3C2=O)C(=O)N1 (centres unmarked) [Compound 171, (2-(2,6-dioxopiperidin-3-yl)-3-oxoisoindolin-5-yl)methyl (1-phenylcyclopropyl)carbamate] | 100 to 1000 nM | > 300 nM |  | 
CC(C)(C)N1CC(NC(=O)OCc2ccc3c(c2)C(=O)N(C2CCC(=O)NC2=O)C3)C1 (centres unmarked) [Compound 172, (2-(2,6-dioxopiperidin-3-yl)-3-oxoisoindolin-5-yl)methyl (1-(tert-butyl)azetidin-3-yl)carbamate] | 100 to 1000 nM | > 300 nM |  | 
O=C1CCC(N2Cc3ccc(COC(=O)Nc4c(F)ccc(Cl)c4F)cc3C2=O)C(=O)N1 (centres unmarked) [Compound 178, (2-(2,6-dioxopiperidin-3-yl)-3-oxoisoindolin-5-yl)methyl (3-chloro-2,6-difluorophenyl)carbamate] | 100 to 1000 nM | > 300 nM |  | 
Cc1c(Cl)ccc(NC(=O)OCc2ccc3c(c2)C(=O)N(C2CCC(=O)NC2=O)C3)c1F (centres unmarked) [Compound 180] |  |  | 100 to 1000 nM | 30 to 300 nM
O=C1CCC(N2Cc3ccc(COC(=O)Nc4ccc(C5CCC5)cn4)cc3C2=O)C(=O)N1 (centres unmarked) [Compound 181, (2-(2,6-dioxopiperidin-3-yl)-3-oxoisoindolin-5-yl)methyl (5-cyclobutylpyridin-2-yl)carbamate] | 100 to 1000 nM | 30 to 300 nM |  | 
O=C1CCC(N2Cc3ccc(COC(=O)Nc4cc(F)cc5c4OCC5)cc3C2=O)C(=O)N1 (centres unmarked) [Compound 187, (2-(2,6-dioxopiperidin-3-yl)-3-oxoisoindolin-5-yl)methyl(5-fluoro-2,3-dihydrobenzofuran-7-yl) carbamate] | < 100 nM | > 300 nM |  | 
CC1(c2ccc(NC(=O)OCc3ccc4c(c3)C(=O)N(C3CCC(=O)NC3=O)C4)nc2)CC1 (centres unmarked) [Compound 188] |  |  | 100 to 1000 nM | < 30 nM
CC(C)(C)OC(=O)NC12CC(NC(=O)OCc3ccc4c(c3)C(=O)N(C3CCC(=O)NC3=O)C4)(C1)C2 (centres unmarked) [Compound 196, tert-butyl((2-(2,6-dioxopiperidin-3-yl)-3-oxoisoindolin-5-yl)methyl)bicyclo[1.1.1]pentane-1,3-diyldicarbamate] | < 100 nM | > 300 nM |  | 
CC(C)c1ccc(F)c(NC(=O)OCc2ccc3c(c2)C(=O)N(C2CCC(=O)NC2=O)C3)c1 (centres unmarked) [Compound 205, (2-(2,6-dioxopiperidin-3-yl)-3-oxoisoindolin-5-yl)methyl (2-fluoro-5-isopropylphenyl)carbamate] | 100 to 1000 nM | 30 to 300 nM |  | 
CCc1ccc(F)c(NC(=O)OCc2ccc3c(c2)C(=O)N(C2CCC(=O)NC2=O)C3)c1 (centres unmarked) [Compound 210, (2-(2,6-dioxopiperidin-3-yl)-3-oxoisoindolin-5-yl)methyl (5-ethyl-2-fluorophenyl)carbamate] | < 100 nM | > 300 nM |  | 

SMILES | IC50 (CRBN-DDB1; [1]) | DC50 (GSPT1; [2]) | IC50 (CRBN-DDB1) | DC50 (GSPT1; [3])
CCCOc1ccc(F)c(NC(=O)OCc2ccc3c(c2)C(=O)N(C2CCC(=O)NC2=O)C3)c1 (centres unmarked) [Compound 226, (2-(2,6-dioxopiperidin-3-yl)-3-oxoisoindolin-5-yl)methyl (2-fluoro-5-propoxyphenyl)carbamate] | 100 to 1000 nM |  |  | 
O=C1CCC(N2Cc3ccc(COC(=O)Nc4cc(OC(F)F)c(F)cn4)cc3C2=O)C(=O)N1 (centres unmarked) [Compound 227, (2-(2,6-dioxopiperidin-3-yl)-3-oxoisoindolin-5-yl)methyl (4-(difluoromethoxy)-5-fluoropyridin-2-yl)carbamate] | 100 to 1000 nM |  |  | 
CCOc1cc(NC(=O)OCc2ccc3c(c2)C(=O)N(C2CCC(=O)NC2=O)C3)c(F)cc1C (centres unmarked) [Compound 228] |  |  | < 100 nM | 
COc1cc(NC(=O)OCc2ccc3c(c2)C(=O)N(C2CCC(=O)NC2=O)C3)c(F)cc1C (centres unmarked) [Compound 229, (2-(2,6-dioxopiperidin-3-yl)-3-oxoisoindolin-5-yl)methyl (2-fluoro-5-methoxy-4-methylphenyl)carbamate] | < 100 nM |  |  | 
Cc1cc(F)c(NC(=O)OCc2ccc3c(c2)C(=O)N(C2CCC(=O)NC2=O)C3)cc1OC(C)C (centres unmarked) [Compound 230, (2-(2,6-dioxopiperidin-3-yl)-3-oxoisoindolin-5-yl)methyl (2-fluoro-5-isopropoxy-4-methylphenyl)carbamate] | < 100 nM |  |  | 
CCCOc1cc(NC(=O)OCc2ccc3c(c2)C(=O)N(C2CCC(=O)NC2=O)C3)c(F)cc1C (centres unmarked) [Compound 231, (2-(2,6-dioxopiperidin-3-yl)-3-oxoisoindolin-5-yl)methyl (2-fluoro-4-methyl-5-propoxyphenyl)carbamate] | < 100 nM |  |  | 
C[C@@H]1CCCN1c1cnc(NC(=O)OCc2ccc3c(c2)C(=O)N(C2CCC(=O)NC2=O)C3)c(F)c1 (stereo partly drawn) [Compound 232, (2-(2,6-dioxopiperidin-3-yl)-3-oxoisoindolin-5-yl)methyl (3-fluoro-5-((R)-2-methylpyrrolidin-1-yl)pyridin-2-yl)carbamate] | < 100 nM |  |  | 
Cc1cc(F)c(NC(=O)OCc2ccc3c(c2)C(=O)N(C2CCC(=O)NC2=O)C3)cc1C(F)(F)F (centres unmarked) [Compound 233] |  |  | 100 to 1000 nM | 
CC(F)(F)c1ccc(F)c(NC(=O)OCc2ccc3c(c2)C(=O)N(C2CCC(=O)NC2=O)C3)c1 (centres unmarked) [Compound 234] |  |  | < 100 nM | 
CC(C)(C)c1ccc(F)c(NC(=O)OCc2ccc3c(c2)C(=O)N(C2CCC(=O)NC2=O)C3)c1 (centres unmarked) [Compound 235] |  |  | 100 to 1000 nM | 
CC1(c2ccc(NC(=O)OCc3ccc4c(c3)C(=O)N(C3CCC(=O)NC3=O)C4)cc2Cl)COC1 (centres unmarked) [Compound 236, (2-(2,6-dioxopiperidin-3-yl)-3-oxoisoindolin-5-yl)methyl (3-chloro-4-(3-methyloxetan-3-yl)phenyl)carbamate] | < 100 nM |  |  | 
Cc1cc(NC(=O)OCc2ccc3c(c2)C(=O)N(C2CCC(=O)NC2=O)C3)ncc1N1CCC[C@H]1C (stereo partly drawn) [Compound 237, (2-(2,6-dioxopiperidin-3-yl)-3-oxoisoindolin-5-yl)methyl (4-methyl-5-((R)-2-methylpyrrolidin-1-yl)pyridin-2-yl)carbamate] | < 100 nM |  |  | 
O=C1CCC(N2Cc3ccc(COC(=O)Nc4ccc(C(O)C(F)(F)F)nc4)cc3C2=O)C(=O)N1 (centres unmarked) [Compound 238] |  |  | 100 to 1000 nM | 
O=C1CCC(N2Cc3ccc(COC(=O)Nc4cccc(Cl)c4)cc3C2=O)C(=O)N1 (centres unmarked) [Compound 239, (2-(2,6-dioxopiperidin-3-yl)-3-oxoisoindolin-5-yl)methyl (3-chlorophenyl)carbamate] | 100 to 1000 nM |  |  | 
CC1(c2ccc(NC(=O)OCc3ccc4c(c3)C(=O)N(C3CCC(=O)NC3=O)C4)cc2F)COC1 (centres unmarked) [Compound 240, (2-(2,6-dioxopiperidin-3-yl)-3-oxoisoindolin-5-yl)methyl (3-fluoro-4-(3-methyloxetan-3-yl)phenyl)carbamate] | 100 to 1000 nM |  |  | 
